Laboratory results taken from ChEMBL document CHEMBL4028801, “A multifactorial approach to hepatobiliary transporter assessment enables improved therapeutic compound development” (Toxicol Sci, 2013).

What was measured:
[1] = molecular target: T1, ATP-binding cassette sub-family C member 4 (Homo sapiens, UniProt O15439); assay: Inhibition of human MRP4 overexpressed in Sf9 cell membrane vesicles assessed as uptake of [3H]-estradiol-17beta-D-glucuronide in presence of ATP and GSH measured after 20 mins by membrane vesicle transport assay; assay type: ADME, cell-based
T1 sequence (O15439 whole entry): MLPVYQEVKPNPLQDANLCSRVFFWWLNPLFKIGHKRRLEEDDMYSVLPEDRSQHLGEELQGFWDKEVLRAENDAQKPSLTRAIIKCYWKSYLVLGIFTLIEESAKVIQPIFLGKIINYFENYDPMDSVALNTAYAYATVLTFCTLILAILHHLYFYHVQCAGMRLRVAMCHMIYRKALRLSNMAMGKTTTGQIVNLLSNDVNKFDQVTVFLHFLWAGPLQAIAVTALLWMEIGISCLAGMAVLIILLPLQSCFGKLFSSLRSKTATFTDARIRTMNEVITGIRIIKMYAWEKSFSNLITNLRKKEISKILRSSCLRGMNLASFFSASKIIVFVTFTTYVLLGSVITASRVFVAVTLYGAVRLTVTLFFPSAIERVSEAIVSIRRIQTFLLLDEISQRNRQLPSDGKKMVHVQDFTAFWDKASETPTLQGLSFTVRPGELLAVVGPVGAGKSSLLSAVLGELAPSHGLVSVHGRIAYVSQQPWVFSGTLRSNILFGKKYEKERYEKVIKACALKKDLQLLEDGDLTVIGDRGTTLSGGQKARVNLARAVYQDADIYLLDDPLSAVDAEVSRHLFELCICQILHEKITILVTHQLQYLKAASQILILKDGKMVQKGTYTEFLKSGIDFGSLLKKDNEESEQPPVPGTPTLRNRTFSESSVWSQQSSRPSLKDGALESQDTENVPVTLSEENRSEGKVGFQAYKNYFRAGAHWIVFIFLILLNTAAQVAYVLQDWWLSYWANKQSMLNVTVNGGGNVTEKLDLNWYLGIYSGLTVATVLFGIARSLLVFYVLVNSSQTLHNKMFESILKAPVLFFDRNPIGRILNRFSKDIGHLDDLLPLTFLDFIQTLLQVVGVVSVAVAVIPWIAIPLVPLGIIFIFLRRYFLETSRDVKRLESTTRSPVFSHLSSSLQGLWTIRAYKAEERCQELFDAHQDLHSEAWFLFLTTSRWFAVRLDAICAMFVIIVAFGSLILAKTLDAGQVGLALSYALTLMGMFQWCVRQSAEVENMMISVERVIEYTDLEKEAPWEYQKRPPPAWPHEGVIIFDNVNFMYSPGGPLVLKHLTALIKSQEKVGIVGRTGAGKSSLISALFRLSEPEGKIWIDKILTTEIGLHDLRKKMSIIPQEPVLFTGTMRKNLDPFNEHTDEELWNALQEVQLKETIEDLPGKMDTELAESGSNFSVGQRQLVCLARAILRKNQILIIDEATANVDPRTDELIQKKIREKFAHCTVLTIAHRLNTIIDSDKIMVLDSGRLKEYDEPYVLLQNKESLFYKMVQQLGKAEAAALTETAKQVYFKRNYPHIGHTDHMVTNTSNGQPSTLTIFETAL

Bile salt export pump = Bile salt export pump (Homo sapiens, UniProt O95342); assay: Inhibition of human BSEP overexpressed in Sf9 cell membrane vesicles assessed as uptake of [3H]-taurocholate in presence of ATP measured after 15 to 20 mins by membrane vesicle transport assay; assay type: ADME, cell-based
Bile salt export pump, sequence (O95342 whole entry): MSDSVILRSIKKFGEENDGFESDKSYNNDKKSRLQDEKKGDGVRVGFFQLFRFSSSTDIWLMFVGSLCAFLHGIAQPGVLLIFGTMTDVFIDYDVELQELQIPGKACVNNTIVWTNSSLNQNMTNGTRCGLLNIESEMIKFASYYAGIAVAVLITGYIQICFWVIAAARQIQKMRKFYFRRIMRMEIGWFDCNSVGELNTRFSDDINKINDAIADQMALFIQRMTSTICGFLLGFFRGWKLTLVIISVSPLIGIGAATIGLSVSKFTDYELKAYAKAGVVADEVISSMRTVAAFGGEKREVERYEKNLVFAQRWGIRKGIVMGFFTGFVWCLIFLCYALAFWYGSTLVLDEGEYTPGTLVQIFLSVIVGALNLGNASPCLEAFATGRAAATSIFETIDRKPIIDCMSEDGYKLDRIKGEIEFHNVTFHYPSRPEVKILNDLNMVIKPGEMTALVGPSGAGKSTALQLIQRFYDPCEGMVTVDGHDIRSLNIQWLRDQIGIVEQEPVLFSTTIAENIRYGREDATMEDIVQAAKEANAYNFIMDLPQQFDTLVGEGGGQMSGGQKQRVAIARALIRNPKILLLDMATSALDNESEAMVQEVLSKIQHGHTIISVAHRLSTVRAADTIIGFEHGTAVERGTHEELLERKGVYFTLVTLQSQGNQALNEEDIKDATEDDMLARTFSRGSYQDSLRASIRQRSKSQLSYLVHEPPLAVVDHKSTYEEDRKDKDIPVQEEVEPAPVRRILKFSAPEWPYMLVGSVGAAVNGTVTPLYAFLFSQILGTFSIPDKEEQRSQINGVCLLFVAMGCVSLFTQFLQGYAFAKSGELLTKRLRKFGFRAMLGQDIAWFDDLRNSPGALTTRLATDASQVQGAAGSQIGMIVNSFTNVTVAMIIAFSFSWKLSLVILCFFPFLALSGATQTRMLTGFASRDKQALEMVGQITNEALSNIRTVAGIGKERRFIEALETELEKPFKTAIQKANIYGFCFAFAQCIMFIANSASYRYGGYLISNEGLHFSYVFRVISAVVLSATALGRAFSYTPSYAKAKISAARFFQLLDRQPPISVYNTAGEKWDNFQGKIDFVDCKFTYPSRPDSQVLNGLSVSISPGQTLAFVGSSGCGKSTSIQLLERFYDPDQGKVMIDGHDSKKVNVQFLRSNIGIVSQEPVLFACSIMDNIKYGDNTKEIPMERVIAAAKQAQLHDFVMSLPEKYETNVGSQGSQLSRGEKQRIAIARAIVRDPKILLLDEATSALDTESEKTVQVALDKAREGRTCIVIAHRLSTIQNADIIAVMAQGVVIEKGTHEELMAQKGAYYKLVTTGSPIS

[2] = molecular target: ATP-binding cassette sub-family C member 3 (Homo sapiens, UniProt O15438); assay: Inhibition of human MRP3 overexpressed in Sf9 insect cell membrane vesicles assessed as uptake of [3H]-estradiol-17beta-D-glucuronide in presence of ATP and GSH measured after 10 mins by membrane vesicle transport assay; assay type: ADME, cell-based
ATP-binding cassette sub-family C member 3, sequence (O15438 whole entry): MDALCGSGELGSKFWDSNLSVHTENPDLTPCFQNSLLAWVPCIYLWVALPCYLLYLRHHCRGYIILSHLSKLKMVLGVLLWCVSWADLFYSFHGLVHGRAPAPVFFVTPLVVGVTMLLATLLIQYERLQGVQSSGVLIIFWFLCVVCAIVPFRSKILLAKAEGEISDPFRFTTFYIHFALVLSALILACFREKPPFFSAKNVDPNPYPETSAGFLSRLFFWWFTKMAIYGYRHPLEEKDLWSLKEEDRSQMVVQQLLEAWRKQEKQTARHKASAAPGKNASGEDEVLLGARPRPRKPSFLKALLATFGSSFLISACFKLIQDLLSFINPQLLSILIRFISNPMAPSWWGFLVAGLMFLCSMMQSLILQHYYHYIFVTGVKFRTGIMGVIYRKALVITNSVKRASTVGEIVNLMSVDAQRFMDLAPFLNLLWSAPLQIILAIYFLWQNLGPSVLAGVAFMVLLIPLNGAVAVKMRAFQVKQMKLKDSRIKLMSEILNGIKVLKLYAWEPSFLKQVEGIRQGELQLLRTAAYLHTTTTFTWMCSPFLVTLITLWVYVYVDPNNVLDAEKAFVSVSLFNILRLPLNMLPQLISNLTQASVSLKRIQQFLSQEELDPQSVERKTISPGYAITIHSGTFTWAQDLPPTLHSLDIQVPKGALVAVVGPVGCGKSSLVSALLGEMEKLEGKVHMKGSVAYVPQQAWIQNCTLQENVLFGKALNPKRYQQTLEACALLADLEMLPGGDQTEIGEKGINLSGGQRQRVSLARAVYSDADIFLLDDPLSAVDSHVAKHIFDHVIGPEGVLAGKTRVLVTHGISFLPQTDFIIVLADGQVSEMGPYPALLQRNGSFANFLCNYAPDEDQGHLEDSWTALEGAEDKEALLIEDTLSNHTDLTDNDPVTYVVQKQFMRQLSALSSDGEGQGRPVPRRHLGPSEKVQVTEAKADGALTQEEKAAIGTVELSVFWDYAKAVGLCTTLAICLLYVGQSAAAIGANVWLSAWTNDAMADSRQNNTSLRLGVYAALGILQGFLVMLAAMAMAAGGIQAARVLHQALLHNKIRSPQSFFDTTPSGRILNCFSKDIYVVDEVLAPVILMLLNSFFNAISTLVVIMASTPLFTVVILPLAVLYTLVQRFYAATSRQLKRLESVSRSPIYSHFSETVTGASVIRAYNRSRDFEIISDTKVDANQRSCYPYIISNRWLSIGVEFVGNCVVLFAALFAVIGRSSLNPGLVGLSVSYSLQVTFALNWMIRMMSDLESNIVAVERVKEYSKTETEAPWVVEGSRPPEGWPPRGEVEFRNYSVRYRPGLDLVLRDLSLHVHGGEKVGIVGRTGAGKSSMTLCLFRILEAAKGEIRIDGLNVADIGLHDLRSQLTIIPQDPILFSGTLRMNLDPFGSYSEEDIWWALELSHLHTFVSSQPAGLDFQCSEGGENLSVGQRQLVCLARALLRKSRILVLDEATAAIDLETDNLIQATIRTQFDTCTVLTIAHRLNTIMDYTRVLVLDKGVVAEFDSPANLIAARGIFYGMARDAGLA

[3] = Ratio of drug concentration at steady state in human at 10 mg, po after 24 hrs to IC50 for human BSEP overexpressed in Sf9 insect cells; assay type: ADME, organism-based; conditions: in vivo
[4] = AUC in human at 10 mg, po after 24 hrs; assay type: ADME, organism-based; design: time < 24 hr, dose 10 mg, route oral; conditions: in vivo
[5] = molecular target: ATP-binding cassette sub-family C member 2 (Homo sapiens, UniProt Q92887); assay: Inhibition of human MRP2 overexpressed in Sf9 cell membrane vesicles assessed as uptake of [3H]-estradiol-17beta-D-glucuronide in presence of ATP and GSH measured after 20 mins by membrane vesicle transport assay
ATP-binding cassette sub-family C member 2, sequence (Q92887 whole entry): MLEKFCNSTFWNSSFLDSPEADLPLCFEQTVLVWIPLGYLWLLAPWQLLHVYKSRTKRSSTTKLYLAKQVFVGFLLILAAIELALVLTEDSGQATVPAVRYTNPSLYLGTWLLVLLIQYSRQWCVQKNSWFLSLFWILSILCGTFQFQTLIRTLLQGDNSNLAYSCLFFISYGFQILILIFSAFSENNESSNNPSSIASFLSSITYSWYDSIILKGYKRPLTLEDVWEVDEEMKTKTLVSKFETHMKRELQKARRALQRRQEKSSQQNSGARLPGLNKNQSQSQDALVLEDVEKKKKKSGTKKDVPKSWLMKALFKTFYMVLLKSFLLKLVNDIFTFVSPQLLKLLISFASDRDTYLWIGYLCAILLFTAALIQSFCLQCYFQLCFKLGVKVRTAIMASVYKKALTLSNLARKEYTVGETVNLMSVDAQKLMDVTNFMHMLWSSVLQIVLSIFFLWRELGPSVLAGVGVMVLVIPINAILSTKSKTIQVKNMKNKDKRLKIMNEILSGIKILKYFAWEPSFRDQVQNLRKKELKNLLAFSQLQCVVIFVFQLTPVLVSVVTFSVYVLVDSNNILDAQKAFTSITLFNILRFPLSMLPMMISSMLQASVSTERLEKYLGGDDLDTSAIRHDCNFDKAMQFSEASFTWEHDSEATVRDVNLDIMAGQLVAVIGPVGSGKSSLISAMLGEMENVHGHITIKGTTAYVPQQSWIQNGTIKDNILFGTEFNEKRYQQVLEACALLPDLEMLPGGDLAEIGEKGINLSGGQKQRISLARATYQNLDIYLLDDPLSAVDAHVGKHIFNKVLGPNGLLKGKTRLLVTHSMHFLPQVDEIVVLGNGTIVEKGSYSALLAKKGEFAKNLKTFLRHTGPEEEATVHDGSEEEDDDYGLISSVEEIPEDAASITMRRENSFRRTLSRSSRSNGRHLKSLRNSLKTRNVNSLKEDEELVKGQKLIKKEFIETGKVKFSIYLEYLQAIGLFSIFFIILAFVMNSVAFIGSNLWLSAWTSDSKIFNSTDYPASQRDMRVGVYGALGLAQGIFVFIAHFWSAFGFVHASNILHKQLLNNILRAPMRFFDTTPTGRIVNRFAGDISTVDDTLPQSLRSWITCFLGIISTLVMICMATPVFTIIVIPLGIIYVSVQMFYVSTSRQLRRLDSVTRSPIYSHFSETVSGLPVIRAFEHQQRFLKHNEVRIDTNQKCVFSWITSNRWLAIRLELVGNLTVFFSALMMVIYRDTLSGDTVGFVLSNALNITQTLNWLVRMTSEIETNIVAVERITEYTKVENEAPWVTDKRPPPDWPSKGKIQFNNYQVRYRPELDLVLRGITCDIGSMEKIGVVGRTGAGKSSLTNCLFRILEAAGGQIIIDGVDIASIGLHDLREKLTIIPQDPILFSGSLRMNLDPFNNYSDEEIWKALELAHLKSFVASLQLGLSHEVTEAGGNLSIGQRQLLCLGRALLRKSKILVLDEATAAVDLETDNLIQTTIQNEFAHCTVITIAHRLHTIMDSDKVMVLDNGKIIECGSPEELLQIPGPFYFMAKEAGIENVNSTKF

[6] = Drug concentration at steady state in human at 10 mg, po after 24 hrs; assay type: ADME, organism-based; conditions: in vivo, read-out: Css
[7] = Drug concentration at steady state in human at 5 to 30 mg, po QD after 24 hrs; assay type: ADME, organism-based; conditions: in vivo, read-out: Css
[8] = AUC in human at 5 to 30 mg, po QD after 24 hrs; assay type: ADME, organism-based; conditions: in vivo
[9] = Ratio of drug concentration at steady state in human at 5 to 10 mg, po QD after 24 hrs to IC50 for human BSEP overexpressed in Sf9 insect cells; assay type: ADME, organism-based; conditions: in vivo
[10] = Ratio of drug concentration at steady state in human at 5 to 10 mg, po QD after 24 hrs to IC50 for human MRP4 overexpressed in Sf9 insect cells; assay type: ADME, organism-based; conditions: in vivo
[11] = Drug concentration at steady state in human at 5 to 10 mg, po QD after 24 hrs; assay type: ADME, organism-based; conditions: in vivo, read-out: Css
[12] = AUC in human at 5 to 10 mg, po QD after 24 hrs; assay type: ADME, organism-based; conditions: in vivo
clinical = conditions: human, in vivo, po
Homo sapiens = assay: Drug concentration at steady state in human at 0.01 to 0.04 mg/kg, po after 24 hrs; assay type: ADME, organism-based; conditions: in vivo
[13] = AUC in human at 1.5 ug administered as 1 drop intraocularly QD after 24 hrs; assay type: ADME; design: dose 1.5 ug, time < 24 hr, route intraocular; conditions: in vivo, topical or ocular
[14] = Drug concentration at steady state in human at 1.5 ug administered as 1 drop intraocularly QD after 24 hrs; assay type: ADME; conditions: in vivo, topical or ocular, read-out: Css
[15] = Ratio of drug concentration at steady state in human at 1.5 ug administered as 1 drop intraocularly QD after 24 hrs to IC50 for human BSEP overexpressed in Sf9 insect cells; assay type: ADME; conditions: in vivo, topical_or_ocular
[16] = Ratio of drug concentration at steady state in human at 2.5 to 10 mg, po QD after 24 hrs to IC50 for human BSEP overexpressed in Sf9 insect cells; assay type: ADME, organism-based; conditions: in vivo
[17] = AUC in human at 2.5 to 10 mg, po QD after 24 hrs; assay type: ADME, organism-based; conditions: in vivo
[18] = Drug concentration at steady state in human at 2.5 to 10 mg, po QD after 24 hrs; assay type: ADME, organism-based; conditions: in vivo, read-out: Css
[19] = Ratio of drug concentration at steady state in human at 0.5 mg, po QD after 24 hrs to IC50 for human BSEP overexpressed in Sf9 insect cells; assay type: ADME, organism-based; conditions: in vivo
[20] = Drug concentration at steady state in human at 0.5 mg, po QD after 24 hrs; assay type: ADME, organism-based; conditions: in vivo, read-out: Css
[21] = AUC in human at 0.5 mg, po QD after 24 hrs; assay type: ADME, organism-based; design: time < 24 hr, dose 0.5 mg, route oral; conditions: in vivo

## O=C1[C@H](CC[C@H](O)c2ccc(F)cc2)[C@@H](c2ccc(O)cc2)N1c1ccc(F)cc1 [EZETIMIBE]
[1]
  IC50: > 133 µM
Bile salt export pump
  IC50: 56 µM
[2]
  IC50: > 133 µM
[3]
  Ratio: 0.002
[4]
  AUC at 24 h: 3.2 µM·h
[5]
  IC50: > 133 µM
[6]
  concentration at 24 h: 134 nM

## CCN(CC)CC#CCOC(=O)C(O)(c1ccccc1)C1CCCCC1 (stereo not drawn) [OXYBUTYNIN]
[1]
  IC50: > 133 µM
[7]
  concentration at 24 h: 2 nM
[8]
  AUC at 24 h: 0.039 µM·h
[2]
  IC50: > 133 µM
[5]
  IC50: > 133 µM

## CC(=O)O[C@]1(C(C)=O)CC[C@H]2[C@@H]3C[C@H](C)C4=CC(=O)CC[C@]4(C)[C@H]3CC[C@@]21C [MEDROXYPROGESTERONE ACETATE]
[1]
  IC50: 22.5 µM
[9]
  Ratio: 0.00004
Bile salt export pump
  IC50: 15.7 µM
[2]
  IC50: > 133 µM
[10]
  Ratio: 0
[11]
  concentration at 24 h: 1 nM
[5]
  IC50: > 133 µM
[12]
  AUC at 24 h: 0.016 µM·h

## Cc1ncc2n1-c1ccc(Cl)cc1C(c1ccccc1F)=NC2 [MIDAZOLAM]
clinical
  AUC at 24 h: 0.369 µM·h
Homo sapiens
  Css: 15 nM

## CC(C)OC(=O)CCC/C=C\C[C@@H]1[C@@H](CC[C@@H](O)CCc2ccccc2)[C@H](O)C[C@@H]1O [LATANOPROST]
[1]
  IC50: > 133 µM
Bile salt export pump
  IC50: 12.9 µM
[2]
  IC50: > 133 µM
[5]
  IC50: > 133 µM
[13]
  AUC at 24 h: 0.047 µM·h
[14]
  concentration at 24 h: 2 nM
[15]
  Ratio: 0.00015

## CCOC(=O)C1=C(C)NC(C)=C(C(=O)OC)C1c1cccc(Cl)c1Cl (stereo not drawn) [FELODIPINE]
[1]
  IC50: > 133 µM
[16]
  Ratio: 0.00006
[17]
  AUC at 24 h: 0.107 µM·h
Bile salt export pump
  IC50: 69.7 µM
[2]
  IC50: > 133 µM
[5]
  IC50: > 133 µM
[18]
  concentration at 24 h: 4 nM

## C[C@]12C=CC(=O)N[C@@H]1CC[C@@H]1[C@@H]2CC[C@]2(C)[C@@H](C(=O)Nc3cc(C(F)(F)F)ccc3C(F)(F)F)CC[C@@H]12 [DUTASTERIDE]
[1]
  IC50: > 133 µM
Bile salt export pump
  IC50: 29.8 µM
[2]
  IC50: > 133 µM
[19]
  Ratio: 0.00011
[5]
  IC50: > 133 µM
[20]
  concentration at 24 h: 3 nM
[21]
  AUC at 24 h: 0.078 µM·h
